Source: ChEMBL document CHEMBL5042471, “Development and Application of Subtype-Selective Fluorescent Antagonists for the Study of the Human Adenosine A1 Receptor in Living Cells” (J Med Chem, 2021)
The source made the active and inactive calls. The calls are words filed in the database; no cut-off is given here.

How the values were obtained:
Adenosine receptor A1 [1] = molecular target: T1, Adenosine receptor A1 (Homo sapiens, UniProt P30542); experiment: Displacement of [3H]DPCPX from human A1 adenosine receptor expressed in Flp-In-CHO cells by radioligand competitive binding assay; assay type: cell-based
T1 sequence (P30542 whole entry): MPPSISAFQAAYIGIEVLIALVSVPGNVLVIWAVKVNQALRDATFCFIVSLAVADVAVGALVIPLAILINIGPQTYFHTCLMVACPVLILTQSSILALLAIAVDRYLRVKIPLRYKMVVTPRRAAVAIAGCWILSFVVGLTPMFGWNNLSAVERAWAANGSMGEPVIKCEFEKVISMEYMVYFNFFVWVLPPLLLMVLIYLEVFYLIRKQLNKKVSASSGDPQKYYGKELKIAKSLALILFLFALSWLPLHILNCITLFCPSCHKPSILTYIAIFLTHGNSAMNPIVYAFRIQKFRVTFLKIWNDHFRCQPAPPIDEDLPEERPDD

Adenosine receptor A3 [2] = molecular target: T2, Adenosine receptor A3 (Homo sapiens, UniProt P0DMS8); experiment: Agonist activity at A3 adenosine receptor (unknown origin); assay type: functional
T2 sequence (P0DMS8 whole entry): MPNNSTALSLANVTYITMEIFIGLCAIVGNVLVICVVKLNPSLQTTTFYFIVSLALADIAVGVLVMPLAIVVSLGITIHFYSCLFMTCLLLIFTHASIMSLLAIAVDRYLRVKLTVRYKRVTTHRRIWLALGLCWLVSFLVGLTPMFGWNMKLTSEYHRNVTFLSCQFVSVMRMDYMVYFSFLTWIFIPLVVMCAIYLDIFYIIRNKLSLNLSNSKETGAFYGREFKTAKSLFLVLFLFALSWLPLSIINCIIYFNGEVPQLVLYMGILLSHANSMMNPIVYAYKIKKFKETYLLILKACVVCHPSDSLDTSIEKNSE

[3] = molecular target: T3, Adenosine receptor A1 (Homo sapiens) (UniProt P30542); experiment: Binding affinity to SNAP-tagged-human A1 adenosine receptor expressed in HEK293 cells at 5 nM after 30 mins in presence of SLV320 by confocal microscopy method; assay type: cell-based
T3 sequence (whole entry): T1 sequence (P30542 whole entry)

[4] = molecular target: T3, Adenosine receptor A1 (Homo sapiens); experiment: Antagonist activity at human A1 adenosine receptor expressed in Flp-In-CHO cells assessed as reduction in NECA-mediated inhibition of forskolin stimulated cAMP accumulation by cAMP assay; assay type: functional, cell-based; conditions: filed as antagonist
[5] = molecular target: T3, Adenosine receptor A1 (Homo sapiens); experiment: Binding affinity to NanoLuc-human A1 adenosine receptor expressed in HEK293-A cells assessed as binding constant (kon) by NanoBRET competitive binding assay; assay type: cell-based; conditions: filed as antagonist
Adenosine receptor A2a [6] = molecular target: T4, Adenosine receptor A2a (Homo sapiens, UniProt P29274); experiment: Binding affinity to NLuc human A2A adenosine receptor expressed in HEK293-A cells assessed as maximal binding capacity in presence of 1 uM ZM241385 by NanoBRET binding assay; assay type: cell-based; conditions: filed as antagonist
T4 sequence (P29274 whole entry): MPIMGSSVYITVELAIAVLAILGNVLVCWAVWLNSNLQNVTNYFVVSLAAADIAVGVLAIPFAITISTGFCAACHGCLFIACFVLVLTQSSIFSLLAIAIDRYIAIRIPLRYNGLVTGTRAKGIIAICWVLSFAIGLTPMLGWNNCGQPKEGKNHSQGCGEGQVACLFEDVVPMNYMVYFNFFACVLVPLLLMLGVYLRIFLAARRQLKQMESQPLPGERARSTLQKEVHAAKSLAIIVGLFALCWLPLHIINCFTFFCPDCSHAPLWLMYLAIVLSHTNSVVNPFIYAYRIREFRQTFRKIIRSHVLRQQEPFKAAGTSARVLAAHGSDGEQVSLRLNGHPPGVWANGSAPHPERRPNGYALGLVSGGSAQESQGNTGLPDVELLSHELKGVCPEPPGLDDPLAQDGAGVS

Adenosine receptor A1 [7] = molecular target: T1, Adenosine receptor A1; experiment: Binding affinity to NanoLuc-human A1 adenosine receptor expressed in HEK293-A cells assessed as kinetic dissociation constant by NanoBRET competitive binding assay; assay type: cell-based
[8] = molecular target: T3, Adenosine receptor A1 (Homo sapiens); experiment: Binding affinity to NanoLuc-human A1 adenosine receptor expressed in HEK293-A cells assessed as binding constant (koff) by NanoBRET competitive binding assay; assay type: cell-based; conditions: filed as antagonist
[9] = molecular target: T5, Adenosine receptor A3 (Homo sapiens) (UniProt P0DMS8); experiment: Binding affinity to NLuc human A3 adenosine receptor expressed in HEK293-A cells assessed as maximal binding capacity in presence of 1 uM MRS1220 by NanoBRET binding assay; assay type: cell-based; conditions: filed as antagonist
T5 sequence (whole entry): T2 sequence (P0DMS8 whole entry)

Adenosine receptor A3 [10] = molecular target: T2, Adenosine receptor A3; experiment: Binding affinity to NLuc human A3 adenosine receptor expressed in HEK293-A cells in presence of 1 uM MRS1220 by NanoBRET binding assay; assay type: cell-based
[11] = molecular target: T3, Adenosine receptor A1 (Homo sapiens); experiment: Binding affinity to NLuc human A1 adenosine receptor expressed in HEK293-A cells assessed as maximal binding capacity in presence of 1 uM SLV320 by NanoBRET binding assay; assay type: cell-based; conditions: filed as antagonist
Adenosine receptor A2b = molecular target: T6, Adenosine receptor A2b (Homo sapiens, UniProt P29275); experiment: Binding affinity to NLuc human A2B adenosine receptor expressed in HEK293-A cells in presence of 1 uM PSB603 by NanoBRET binding assay; assay type: cell-based
T6 sequence (P29275 whole entry): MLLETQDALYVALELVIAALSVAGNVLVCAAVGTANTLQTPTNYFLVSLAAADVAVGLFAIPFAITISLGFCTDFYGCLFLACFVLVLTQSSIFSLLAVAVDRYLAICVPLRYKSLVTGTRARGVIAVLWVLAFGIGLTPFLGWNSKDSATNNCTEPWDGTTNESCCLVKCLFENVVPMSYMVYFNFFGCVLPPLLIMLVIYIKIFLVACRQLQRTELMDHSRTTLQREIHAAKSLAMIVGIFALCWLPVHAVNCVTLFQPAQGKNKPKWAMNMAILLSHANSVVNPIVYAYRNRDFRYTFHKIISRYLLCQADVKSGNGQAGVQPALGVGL

Adenosine receptor A2a [12] = molecular target: T4, Adenosine receptor A2a; experiment: Binding affinity to NLuc human A2A adenosine receptor expressed in HEK293-A cells in presence of 1 uM ZM241385 by NanoBRET binding assay; assay type: cell-based
[13] = molecular target: T7, Adenosine receptor A2b (Homo sapiens) (UniProt P29275); experiment: Binding affinity to NLuc human A2B adenosine receptor expressed in HEK293-A cells assessed as maximal binding capacity in presence of 1 uM PSB603 by NanoBRET binding assay; assay type: cell-based; conditions: filed as antagonist
T7 sequence (whole entry): T6 sequence (P29275 whole entry)

Adenosine receptor A1 [14] = molecular target: T1, Adenosine receptor A1; experiment: Binding affinity to NLuc human A1 adenosine receptor expressed in HEK293-A cells in presence of 1 uM SLV320 by NanoBRET binding assay; assay type: cell-based
Adenosine receptor A1 [15] = molecular target: T1, Adenosine receptor A1; experiment: biochemical
Description: Displacement of [3H]DPCPX from human A1 adenosine receptor expressed in CHO-K1 cells by radioligand binding assay

Adenosine receptor A1 [16] = molecular target: T1, Adenosine receptor A1; experiment: Binding affinity to NanoLuc human A1 adenosine receptor expressed in HEK293-A cells in prescence of NECA by NanoBRET competitive binding assay; assay type: cell-based
Adenosine receptor A1 [17] = molecular target: T1, Adenosine receptor A1; experiment: Binding affinity to NanoLuc human A1 adenosine receptor expressed in HEK293-A cells in prescence of SLV320 by NanoBRET competitive binding assay; assay type: cell-based
Adenosine receptor A1 [18] = molecular target: T1, Adenosine receptor A1; experiment: Binding affinity to NanoLuc human A1 adenosine receptor expressed in HEK293-A cells in prescence of DPCPX by NanoBRET competitive binding assay; assay type: cell-based
[19] = molecular target: T3, Adenosine receptor A1 (Homo sapiens); experiment: Binding affinity to SNAP-tagged-human A1 adenosine receptor expressed in HEK293 cells at 50 nM after 30 mins in presence of SLV320 by confocal microscopy method; assay type: cell-based
[20] = molecular target: T3, Adenosine receptor A1 (Homo sapiens); experiment: Binding affinity to SNAP-tagged-human A1 adenosine receptor expressed in HEK293 cells assessed as red fluorescent spot in plasma membrane pre-incubated with 10 uM SLV320 by microscopy based TIRF assay; assay type: cell membranes
[21] = molecular target: T3, Adenosine receptor A1 (Homo sapiens); experiment: Binding affinity to SNAP-tagged-human A1 adenosine receptor expressed in HEK293 cells at 10 nM after 30 mins in presence of SLV320 by confocal microscopy method; assay type: cell-based

Row | Structure (SMILES) | Ki (Adenosine receptor A1 [1]) [nM] | pKb [4] | K [5] | Kd (Adenosine receptor A1 [7]) [nM] | K [8] [min⁻¹] | Kd (Adenosine receptor A3 [10]) [nM] | Bmax [11] | Kd (Adenosine receptor A2b) [nM] | Kd (Adenosine receptor A2a [12]) [nM] | Kd (Adenosine receptor A1 [14]) [nM] | also measured
1 | CCCn1c(=O)c2[nH]c(C34CCC(C(=O)NCCNC(=O)CCCCC[N+]5=C(/C=C/C=C/C=C6/N(C)c7ccc(S(=O)(=O)O)cc7C6(C)C)C(C)(C)c6cc(S(=O)(=O)[O-])ccc65)(CC3)CC4)nc2n(CCC)c1=O | 851 | – | – | – | – | – | – | – | – | – | –
2 | CCCn1c(=O)c2[nH]c(C34CCC(CCC(=O)NCCNC(=O)CCNC(=O)CCNC(=O)OC(C)(C)C)(CC3)CC4)nc2n(CCC)c1=O | 7.76 | – | – | – | – | – | – | – | – | – | –
3 | CCNC(=O)[C@H]1O[C@@H](n2cnc3c(NCCCCNC(=O)CNC(=O)[C@@H](C)NC(=O)[C@@H](C)NC(=O)CCCCCNC(=O)COc4ccc(/C=C/C5=[N+]6C(=Cc7ccc(-c8cccs8)n7[B-]6(F)F)C=C5)cc4)ncnc32)[C@H](O)[C@@H]1O | – | – | – | – | – | – | – | – | – | – | EC50 (Adenosine receptor A3 [2]): 3.31 nM
4 | CCCn1c(=O)c2[nH]c(C34CCC(C(=O)NCCNC(=O)CCNC(=O)CCNC(=O)CCCCCNC(=O)COc5ccc(/C=C/C6=[N+]7C(=Cc8ccc(-c9cccs9)n8[B-]7(F)F)C=C6)cc5)(CC3)CC4)nc2n(CCC)c1=O | 0.288 | 9.75 | 17.9 10^6/M/min | 3.09 | 0.054 | 135 | 0.018 | 7.76 | 28.2 | 1.17 | Activity [3]: inactive; Bmax (Adenosine receptor A2a [6]): 0.035; Bmax [9]: 0.012; Bmax [13]: 0.016
5 | O[C@H]1CC[C@H](Nc2nc(-c3ccccc3)nc3[nH]ccc23)CC1 | 1.7 | – | – | – | – | – | – | – | – | – | Ki (Adenosine receptor A1 [15]): 1 nM
6 | CCCn1c(=O)c2[nH]c(C34CCC(C(=O)NCCCNC(=O)COCCOCCNC(=O)OC(C)(C)C)(CC3)CC4)nc2n(CCC)c1=O | 22.4 | – | – | – | – | – | – | – | – | – | –
7 | CCCn1c(=O)c2[nH]c(C34CC5CC(CC(C5)C3)C4)nc2n(CCCNC(=O)c2ccc(C(=O)NCCNC(=O)CCNC(=O)CCCCCNC(=O)COc3ccc(/C=C/C4=[N+]5C(=Cc6ccc(-c7cccs7)n6[B-]5(F)F)C=C4)cc3)cc2)c1=O | 9.77 | 8.72 | 3.6 10^6/M/min | 13.2 | 0.046 | 58.9 | 0.019 | 55 | 50.1 | 3.16 | Ki (Adenosine receptor A1 [16]): 1100 nM; Bmax (Adenosine receptor A2a [6]): 0.003; Bmax [9]: 0.001; Activity [21]: inactive; Ki (Adenosine receptor A1 [17]): 1.41 nM; Ki (Adenosine receptor A1 [18]): 20.9 nM; Bmax [13]: 0.004

Continued by falling Ki (Adenosine receptor A1 [1]), values first:

Row | Ki (Adenosine receptor A1 [1]) [nM] | pKb [4] | K [5] | Kd (Adenosine receptor A1 [7]) [nM] | K [8] [min⁻¹] | Kd (Adenosine receptor A3 [10]) [nM] | Bmax [11] | Kd (Adenosine receptor A2b) [nM] | Kd (Adenosine receptor A2a [12]) [nM] | Kd (Adenosine receptor A1 [14]) [nM] | Structure (SMILES) | also measured
8 | 200 | 7.12 | 0.86 10^6/M/min | 138 | 0.117 | > 1000 | 0.03 | > 1000 | > 1000 | 44.7 | CCCn1c(=O)c2[nH]c(C34CCC(C(=O)NCCNC(=O)CCNC(=O)CCNC(=O)CCCCC[N+]5=C(/C=C/C=C/C=C6/N(C)c7ccc(S(=O)(=O)O)cc7C6(C)C)C(C)(C)c6cc(S(=O)(=O)[O-])ccc65)(CC3)CC4)nc2n(CCC)c1=O | Ki (Adenosine receptor A1 [16]): 398 nM; Ki (Adenosine receptor A1 [17]): 0.708 nM; Ki (Adenosine receptor A1 [18]): 7.41 nM; Activity [19]: inactive; Activity [20]: inactive
9 | 17.4 | – | – | – | – | – | – | – | – | – | CCCn1c(=O)c2[nH]c(C34CCC(C(=O)NCCNC(=O)COCCOCCNC(=O)OC(C)(C)C)(CC3)CC4)nc2n(CCC)c1=O | –
10 | 4.37 | – | – | – | – | – | – | – | – | – | CCCn1c(=O)c2[nH]c(C34CCC(C(=O)NCCNC(=O)CCNC(=O)CCNC(=O)OC(C)(C)C)(CC3)CC4)nc2n(CCC)c1=O | –
